Experimental data reported in paper PMC6690024, “Trading amino acids at the aphid–Buchnera symbiotic interface” (Proceedings of the National Academy of Sciences of the …, 2019).

What was measured:
ApNEAAT1 (ACYPI008971) = biological target: T1, ApNEAAT1 (ACYPI008971) (Acyrthosiphon pisum, UniProt A0A8R1W427); test: competition with radiolabelled proline uptake in Xenopus oocytes; format: cell-based; conditions: pH 5.5, Na+-free, room temperature, 10 mM competitor
T1 construct: cDNA in pcDNA3.1 or pCS2+, cRNA injected into Xenopus laevis oocytes; SLC36-related AAAP transporter; I161 in TM3
T1 sequence (A0A8R1W427 1-463): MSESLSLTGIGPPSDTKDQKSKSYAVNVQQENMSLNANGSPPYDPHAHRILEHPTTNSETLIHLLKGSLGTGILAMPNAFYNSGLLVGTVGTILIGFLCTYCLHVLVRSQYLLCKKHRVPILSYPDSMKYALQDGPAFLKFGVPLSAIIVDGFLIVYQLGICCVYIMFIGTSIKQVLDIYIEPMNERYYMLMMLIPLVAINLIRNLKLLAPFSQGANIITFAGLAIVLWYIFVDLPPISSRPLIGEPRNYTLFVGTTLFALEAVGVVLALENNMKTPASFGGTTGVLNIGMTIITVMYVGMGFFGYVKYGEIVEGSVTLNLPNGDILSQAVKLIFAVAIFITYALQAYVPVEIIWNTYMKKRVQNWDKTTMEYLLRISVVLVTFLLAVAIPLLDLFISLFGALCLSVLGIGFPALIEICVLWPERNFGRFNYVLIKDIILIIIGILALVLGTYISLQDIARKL

PAT2 (rat slc36a2) [1] = biological target: T2, PAT2 (rat slc36a2) (Rattus norvegicus, UniProt Q8K415); conditions: 0.1 to 1 mM proline, Na+-free, pH 5.5, -30 mV; H+ symport
PAT2 (rat slc36a2) [2] = biological target: T2, PAT2 (rat slc36a2); test: trans-stimulation of [3H]proline efflux from Xenopus oocytes; format: cell-based; design: wild type in pSPORT, cRNA injected into Xenopus laevis oocytes; conditions: 10 mM extracellular alanine, Na+-free, pH 5.5, 10 min
[3] = substrate: O=C(O)[C@@H]1CCCN1; test: cells, lysate or membranes; conditions: pH 5.5, Na+-free, room temperature, 40 min, labelled compound
[4] = also direct uptake at 10 µM (Figure 4A)

T2 sequence (Q8K415 whole entry): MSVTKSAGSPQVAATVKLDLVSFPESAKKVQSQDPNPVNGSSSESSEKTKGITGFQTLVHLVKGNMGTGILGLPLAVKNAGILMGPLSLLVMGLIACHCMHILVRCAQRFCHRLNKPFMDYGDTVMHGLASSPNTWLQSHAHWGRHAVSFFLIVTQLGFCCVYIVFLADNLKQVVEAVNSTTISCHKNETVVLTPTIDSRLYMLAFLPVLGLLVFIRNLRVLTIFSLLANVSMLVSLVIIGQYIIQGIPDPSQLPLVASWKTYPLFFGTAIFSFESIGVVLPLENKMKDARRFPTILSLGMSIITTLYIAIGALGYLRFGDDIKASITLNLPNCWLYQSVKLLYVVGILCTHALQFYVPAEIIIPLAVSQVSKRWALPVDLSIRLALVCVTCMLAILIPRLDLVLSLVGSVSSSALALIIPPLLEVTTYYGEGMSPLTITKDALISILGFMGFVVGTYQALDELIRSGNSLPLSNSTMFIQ

C[C@@H](O)[C@H](N)C(=O)O [Thr, threonine]
% control proline uptake at 10 mM (ApNEAAT1 (ACYPI008971); weak): weaker interactions with amino acids of slightly larger side-chain (e.g., threonine)

O=C(O)[C@@H]1CCCN1 [Pro, proline]
two-electrode voltage clamp of Xenopus oocytes, proline-induced inward current (PAT2 (rat slc36a2) [1]): Proline-associated inward current in PAT2-expressing but not ApNEAAT1-expressing or uninjected (control) oocytes

O=C(O)[C@H]1CCCN1 [D-proline]
% control proline uptake at 10 mM (ApNEAAT1 (ACYPI008971)): small NEAAs (such as glycine and L- and D-proline, serine, alanine, and cysteine)

C[C@H](N)C(=O)O [Ala, alanine]
trans-stimulation of [3H]proline efflux from Xenopus oocytes (PAT2 (rat slc36a2) [2]): In PAT2-expressing oocytes, alanine trans-stimulation of [3H]proline efflux was evident | % control proline uptake at 10 mM (ApNEAAT1 (ACYPI008971); [4]): smaller dipolar L- and D-amino acids (including proline, alanine, serine, cysteine, and glycine)

N[C@@H](CS)C(=O)O [Cys, cysteine]
% control proline uptake at 10 mM (ApNEAAT1 (ACYPI008971); also trans-stimulates [3H]proline efflux (Figure 4D)): Cysteine is thus demonstrated to be an ApNEAAT1 substrate by its ability to trans-stimulate

N[C@@H](CO)C(=O)O [Ser, serine]
% control proline uptake at 10 mM (ApNEAAT1 (ACYPI008971); [4]): smaller dipolar L- and D-amino acids (including proline, alanine, serine, cysteine, and glycine)

B1: ApNEAAT1 (ACYPI008971) (Acyrthosiphon pisum) (protein)
chain: T1 sequence (A0A8R1W427 1-463)
Km [3]: 179 ± 33 µM
